In assay [1] the test system is Candida albicans. Description: Antifungal activity against Candida albicans. Type of assay: functional.
The subject of assay [2] is Trichophyton mentagrophytes. Description: Antifungal activity against Trichophyton mentagrophytes. Type of assay: functional.
The subject of assay [3] is Trichostrongylus colubriformis. Description: Antiparasitic activity against Trichostrongylus colubriformis. Type of assay: functional, organism-based.
Assay [4] has as its system NCI-H1299. Put plainly: Cytotoxicity against human NCI-H1299 cells. The assay is classed as functional, cell-based.
Assay [5] has as its system RAW264.7. Description: Inhibition of LPS-induced NO-production in mouse RAW264.7 cells at 4.5 to 20 uM incubated for 24 hrs by Griess reagent based assay relative to control. Type of assay: functional.
In assay [6] the target is Cyclooxygenase (Homo sapiens, UniProt P35354+P23219). Description: Inhibition of COX (unknown origin). The assay is classed as protein assay.
Assay [7] relates to Macrophage. Description: Inhibition of superoxide anion radical release in guinea pig macrophages. The assay is classed as functional, cell-based. The following applies: Cavia porcellus.
The nature of assay [8]: Inhibition of calmodulin (unknown origin). The following applies: Homo sapiens.
In assay [9] the test system is KB. Put plainly: Cytotoxicity against human KB cells. The assay is classed as functional. The following applies: read-out: ED50 (the source's name).
Assay [10] in a line: Inhibition of DNA polymerase beta (unknown origin). More on the design: species or system Homo sapiens.
The test system of assay [11] is Trichostrongylus colubriformis. Put plainly: Antiparasitic activity against Trichostrongylus colubriformis assessed as inhibiton of parasite growth at 0.7 ug/ml relative to control. Type of assay: functional.
Assay [12] concerns MRC5. Description: Cytotoxicity against human MRC5 cells. Type of assay: functional, cell-based.
The test system of assay [13] is Staphylococcus aureus. Description: […] activity against Staphylococcus aureus. The assay is classed as functional.
Assay [14] addresses Vasopressin V1a receptor (Homo sapiens) (UniProt P37288). Put plainly: Antagonist activity at vasopressin (unknown origin).
Assay [15] in a line: Antioxidant activity assessed as DPPH radical scavenging activity at 50 ug/ml relative to control. Type of assay: functional.

The term MIC denotes the least concentration at which growth counts as inhibited. The IC50 is the concentration that inhibits the measured activity by half. The inhibition is the percentage by which the read-out fell short of the control.

≈ marks a conversion by molar mass, not a printed value.

Sequence of Vasopressin V1a receptor (Homo sapiens) (P37288 whole entry, looked up): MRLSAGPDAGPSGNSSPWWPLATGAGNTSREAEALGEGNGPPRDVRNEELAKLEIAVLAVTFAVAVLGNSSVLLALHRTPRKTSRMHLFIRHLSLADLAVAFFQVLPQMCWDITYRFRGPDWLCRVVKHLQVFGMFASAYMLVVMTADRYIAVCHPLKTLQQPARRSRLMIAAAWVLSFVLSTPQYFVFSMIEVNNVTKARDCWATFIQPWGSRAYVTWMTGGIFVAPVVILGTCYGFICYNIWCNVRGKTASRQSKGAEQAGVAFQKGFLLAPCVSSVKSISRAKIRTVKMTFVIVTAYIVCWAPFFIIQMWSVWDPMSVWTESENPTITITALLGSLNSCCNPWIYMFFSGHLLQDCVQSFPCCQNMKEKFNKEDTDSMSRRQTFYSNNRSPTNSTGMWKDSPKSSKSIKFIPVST

Regarding `COc1cccc(CCc2ccc(O)cc2)c1`, the results for the MIC in assay [1] and in assay [2] were 125 µg/mL (≈ 548 µM) and 62.5 µg/mL (≈ 274 µM), respectively. Moreover, the IC50 in [3] came out at 0.13 µg/mL (≈ 0.569 µM). The compound `COC(=O)c1c(CCc2ccccc2)cc(O)c(CC=C(C)C)c1O` had an IC50 in assay [4] of 5.1 µM. On to `CC1=CCc2c(O)cc(CCc3ccccc3O)cc2OC1`, for which the “inhibition (INH)” value in assay [5] is 50%.

In the case of `C[C@]12COc3cc(CCc4ccccc4)c(C(=O)O)c(O)c3[C@H]1C2`, the IC50 was determined as 39.7 µM in [6] and 6 µg/mL (≈ 18.5 µM) in assay [7]. The “inhibition (INH)” value in assay [5] is 50%. The compound `CC1=CCc2c(cc(CCc3ccc(O)cc3)c(C(=O)O)c2O)OC1` registered an ID50 in [8] of 18.5 µg/mL (≈ 54.4 µM). As for `Oc1cccc(CCc2ccc(Oc3cc(CCc4cccc(O)c4)cc(O)c3O)cc2)c1` [PERROTETTIN F], the EC50 in [9] is 20 µg/mL (≈ 45.2 µM). The compound further returned a half-maximal inhibitory concentration (IC50) in [10] of 97.5 to 114 µM. For the compound `COc1ccc(CCc2cccc(OC)c2)cc1`, the inhibition at 0.7 µg/mL in [11] was determined as 30%.

For `CC1=CCc2c(O)cc(CCc3ccccc3)cc2OC1`, in assay [8], the ID50 came out at 95 µg/mL (≈ 339 µM). Also, the “inhibition (INH)” value in assay [5] is reported as 50%. For `Oc1cccc(CCc2ccc(Oc3cc(CCc4cccc(O)c4)ccc3O)cc2)c1`, in assay [9], the EC50 was 12.5 µg/mL (≈ 29.3 µM). Half-maximal inhibition in [12] (IC50) required 7.46 µg/mL (≈ 17.5 µM). In assay [13], `COc1cc(CCc2ccccc2)cc(O)c1CC=C(C)C` gave an MIC of 3 µg/mL (≈ 10.1 µM). This compound returned an ID50 in assay [14] of 27 µg/mL (≈ 91.1 µM).

In turn, `CC(C)=CCc1c(O)cc(O)cc1CCc1ccccc1` returned an ID50 in [8] of 4.9 µg/mL (≈ 17.4 µM). Further, the Activity in assay [15] was determined as 28%. Compound `C=C(C)[C@H]1Cc2c(CCc3ccccc3)cc(O)c(O)c2O1` registered an ID50 in [8] of 2 µg/mL (≈ 6.75 µM).

As for `CC(C)=CCC/C(C)=C/Cc1c(O)cc(O)cc1CCc1ccccc1`, the lowest concentration to inhibit growth in assay [13] (MIC) was 20 µg/mL (≈ 57.1 µM). The same compound returned an ID50 in [8] of 4 µg/mL (≈ 11.4 µM). Further, in assay [5], the “inhibition (INH)” value is on record as 50%. The compound `CC(C)=CCc1c(CCc2ccccc2)cc(O)c(O)c1O` yielded an ID50 in [8] of 3.5 µg/mL (≈ 11.7 µM).

The values above are taken from ChEMBL document CHEMBL4613258, “Distribution of Bibenzyls, Prenyl Bibenzyls, Bis-bibenzyls, and Terpenoids in the Liverwort Genus Radula” (J Nat Prod, 2020).
